From publication PMC2194712, “Structure of Arabidopsis thaliana 5-methylthioribose kinase reveals a more occluded active site than its bacterial homolog” (BMC Structural Biology, 2007)

What was measured:
A. thaliana MTR kinase = molecular target: T1, A. thaliana MTR kinase (Arabidopsis thaliana, UniProt Q9C6D2); assay: X-ray crystallography, […] Å, co-crystallization; type: binding; conditions: crystal soaked at pH 6.5
T1 construct: gene MTK; full length, 420 residues; homodimer
T1 sequence (Q9C6D2 1-420): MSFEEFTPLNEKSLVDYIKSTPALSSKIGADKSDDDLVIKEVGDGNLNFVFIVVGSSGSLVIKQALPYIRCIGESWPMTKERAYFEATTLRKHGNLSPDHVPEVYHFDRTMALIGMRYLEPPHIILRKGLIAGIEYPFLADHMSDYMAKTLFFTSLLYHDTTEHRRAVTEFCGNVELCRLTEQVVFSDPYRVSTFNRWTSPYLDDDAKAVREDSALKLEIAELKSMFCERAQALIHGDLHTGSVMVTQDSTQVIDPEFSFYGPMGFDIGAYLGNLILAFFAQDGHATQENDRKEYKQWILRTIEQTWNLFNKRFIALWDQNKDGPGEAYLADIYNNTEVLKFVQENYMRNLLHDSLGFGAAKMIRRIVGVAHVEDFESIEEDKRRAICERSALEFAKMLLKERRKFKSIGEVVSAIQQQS

[1] = molecular target: the molecule itself; assay: SEC; size exclusion chromatography of A. thaliana MTR kinase, data not shown; conditions not given

`Nc1ncnc2c1ncn2[C@@H]1O[C@H](COP(=O)(O)OP(=O)(O)O)[C@@H](O)[C@H]1O` [ADP] was tested, and the “X-ray crystallography, 1.9 Å, co-crystallization” value (A. thaliana MTR kinase; nucleotide site, from ATPγS hydrolysed during co-crystallization, two Mg(II), MTR bound) was “coordinates of the A. thaliana MTR kinase in complex with ADP and MTR”.

`CSC[C@H]1OC(O)[C@H](O)[C@@H]1O` (stereo partly drawn) [MTR] was tested, and the “X-ray crystallography, 1.9 Å, co-crystallization” value (A. thaliana MTR kinase; active site, co-crystallized with ATPγS and MTR, Mg(II) and ADP bound, alpha anomer) was “coordinates of the A. thaliana MTR kinase in complex with ADP and MTR”.

B1: Arabidopsis thaliana 5-methylthioribose kinase (enzyme, UniProt Q9C6D2 1-420, looked up)
chain: T1 sequence (Q9C6D2 1-420)
notes: 5-methylthioribose (MTR) kinase of Arabidopsis thaliana, 420 residues; residues 1 and 420 are named as part of the crystallised protein (not modelled); also called A. thaliana MTR kinase; MTR kinase
With B1 the “stoichiometry N” value [1] was 2.
